According to patent US20190211020A1 (Agency for Science, Technology and Research, priority 2012, published 2019):
pIC50: −log10 of the molar value. Read-outs that look alike come from different tables or passages of the source.

Tested on: eIF4E Ser209 phosphorylation in Hela cells
Test: MNK cell-based assay (AlphaScreen SureFire, eIF4E Ser209 phosphorylation)
Settings: read-out: IC50 Hela
Text: It has been reported that Ser209 of eIF4E is solely phosphorylated by the MNK enzymes. The ability of compounds to inhibit this process in Hela cells was investigated using the AlphaScreen SureFire® assay platform from Perkin Elmer (Waltham, Mass.). eIF4E phosphorylated on Ser209 is recognized by two antibodies, the first which is fused to a streptavidin coated donor bead binds to an epitope away from Ser209, the second which is fused to a protein A conjugated acceptor bead binds to phosphorylated Ser209. The phosphorylation of eIF4E on Ser209 brings the two antibodies into close proximity and when excited by a laser a singlet oxygen is released by the donor bead which excites the acceptor bead resulting in the emission of light. This enables the monitoring of eIF4E Ser209 phosphorylation and its inhibition in a cellular context.
Hela cells were seeded into microtitre plates (30,000 cells per well) in 100 μl of culture medium and incubated at 37° C. for 24 hours. The media was then removed by aspiration and the cells resuspended in 50 μl of serum free medium containing the test compound and incubated at 37° C. for 2 hours. The culture medium was again removed by aspiration and the cells resuspended in lysis buffer (provided in Perkin Elmer SureFire® Assay Kit). After agitation at 350 rpm for 20 minutes at 22° C., 4 μl was transferred to a 384 well OptiPlate™ (Perkin Elmer, Waltham, Mass.). To each well was added 5 μl of acceptor mix; the plate was sealed and agitated gently at 22° C. for 2 hours. Then, in subdued light, 2 μl of donor mix was added to each well, the plate was sealed, wrapped in aluminum foil and agitated gently at 22° C. for 2 hours. Emission was measured using the EnVision® plate reader (Perkin Elmer, Waltham, Mass.).
Inhibition constants (IC50) were determined by plotting AlphaScreen signal versus log compound concentration and fitting with a non-linear regression algorithm using GraphPad Prism (GraphPad Software Inc.).

[1] = Homo sapiens, eIF4E Ser209 phosphorylation, Hela cells, 2 hours
[2] = eIF4E Ser209 phosphorylation, Hela cells, 2 hours

SMILES	pIC50 [1]	other results
N#Cc1ccc(-c2cnc3ccc(-c4ccc(C(=O)NCC(=O)N5CCOCC5)cc4)cn23)cc1 [Example 115, 4-(3-(4-cyanophenyl)imidazo[1,2-a]pyridin-6-yl)-N-(2-morpholino-2-oxoethyl)benzamide]	> 6.00	–
N#Cc1ccc(-c2cnc3ccc(-c4ccc(C(=O)NCCN5CCOCC5)cc4)cn23)cc1 [Example 116, 4-(3-(4-cyanophenyl)imidazo[1,2-a]pyridin-6-yl)-N-(2-morpholinoethyl)benzamide]	> 6.00	–
N#Cc1ccc(-c2cnc3ccc(-c4ccc(C(=O)N5CCC6(CCCCN6)CC5)cc4)cn23)cc1 [Example 117, 4-(6-(4-(1,9-diazaspiro[5.5]undecane-9-carbonyl)phenyl)imidazo[1,2-a]pyridin-3-yl)benzonitrile]	> 6.00	–
CC(=O)N1CCCCC12CCN(C(=O)c1ccc(-c3ccc4ncc(-c5ccc(C#N)cc5)n4c3)cc1)CC2 [Example 118, 4-(6-(4-(1-acetyl-1,9-diazaspiro[5.5]undecane-9-carbonyl)phenyl)imidazo[1,2-a]pyridin-3-yl)benzonitrile]	> 6.00	–
CN1CCCCC12CCN(C(=O)c1ccc(-c3ccc4ncc(-c5ccc(C#N)cc5)n4c3)cc1)CC2 [Example 119, 4-(6-(4-(1-methyl-1,9-diazaspiro [5.5]undecane-9-carbonyl)phenyl)imidazo[1,2-a]pyridin-3-yl)benzonitrile]	> 6.00	–
CN(C(=O)c1ccc(-c2ccc3ncc(-c4ccc(C#N)cc4)n3c2)cc1)c1ccncc1 [Example 122, 4-(3-(4-cyanophenyl)imidazo[1,2-a]pyridin-6-yl)-N-methyl-N-(pyridin-4-yl)benzamide]	> 6.00	–
N#Cc1ccc(-c2cnc3ccc(-c4ccc(C(=O)N5CCC(CN)CC5)cc4)cn23)cc1 [Example 123, 4-(6-(4-(4-(aminomethyl)piperidine-1-carbonyl)phenyl)imidazo[1,2-a]pyridin-3-yl)benzonitrile]	> 6.00	–
N#Cc1ccc(-c2cnc3ccc(-c4ccc(C(=O)N5CCC(CCN)CC5)cc4)cn23)cc1 [Example 124, 4-(6-(4-(4-(2-aminoethyl)piperidine-1-carbonyl)phenyl)imidazo[1,2-a]pyridin-3-yl)benzonitrile]	> 6.00	–
N#Cc1ccc(-c2cnc3ccc(-c4ccc(C(=O)N5CCN(C(=O)c6ccccc6)CC5)cc4)cn23)cc1 [Example 126, 4-(6-(4-(4-benzoylpiperazine-1-carbonyl)phenyl)imidazo[1,2-a]pyridin-3-yl)benzonitrile]	> 6.00	–
N#Cc1ccc(-c2cnc3ccc(-c4ccc(C(=O)N5CCN(Cc6ccc(C(N)=O)cc6)CC5)cc4)cn23)cc1 [Example 129, 4-((4-(4-(3-(4-cyanophenyl)imidazo[1,2-a]pyridin-6-yl)benzoyl)piperazin-1-yl)methyl)benzamide]	> 6.00	–
CN1CCN(C(=O)c2ccc(-c3ccc4ncc(-c5ccc(C#N)cc5)n4c3)cc2)CC1=O [Example 130, 4-(6-(4-(4-methyl-3-oxopiperazine-1-carbonyl)phenyl)imidazo[1,2-a]pyridin-3-yl)benzonitrile]	> 6.00	–
N#Cc1ccc(-c2cnc3ccc(-c4ccc(C(=O)N5CCC(N6CCOCC6)CC5)cc4)cn23)cc1 [Example 134, 4-(6-(4-(4-morpholinopiperidine-1-carbonyl)phenyl)imidazo[1,2-a]pyridin-3-yl)benzonitrile]	> 6.00	–
Cc1nnc(C2(C)CCN(C(=O)c3ccc(-c4ccc5ncc(-c6ccc(C#N)cc6)n5c4)cc3)CC2)o1 [Example 135, 4-(6-(4-(4-methyl-4-(5-methyl-1,3,4-oxadiazol-2-yl)piperidine-1-carbonyl)phenyl)imidazo [1,2-a]pyridin-3-yl)benzonitrile]	> 6.00	–
Cc1cc2ncc(-c3ccc(C#N)cc3)n2cc1-c1ccc(C(=O)N2CCC(C)(N)CC2)cc1 [Example 137, 4-(6-(4-(4-amino-4-methylpiperidine-1-carbonyl)phenyl)-7-methylimidazo[1,2-a]pyridin-3-yl)benzonitrile]	–	pIC50 (Homo sapiens, HeLa, 2 h): > 6.00
Cc1cc2ncc(-c3ccc(C#N)cc3)n2cc1-c1ccc(C(=O)N2CCN(C)CC2)cc1 [Example 138, 4-(7-methyl-6-(4-(4-methylpiperazine-1-carbonyl)phenyl)imidazo[1,2-a]pyridin-3-yl)benzonitrile]	> 6.00	–
CN1CCN(C(=O)c2ccc(-c3ccc4ncc(-c5ccc(C#N)cc5)n4c3)c(F)c2)CC1 [Example 140, 4-(6-(2-fluoro-4-(4-methylpiperazine-1-carbonyl)phenyl)imidazo [1,2-a]pyridin-3-yl)benzonitrile]	> 6.00	–
CN1CCN(C(=O)c2ccc(-c3ccc4ncc(-c5ccc(C#N)cc5)n4c3)cc2Cl)CC1 [Example 141, 4-(6-(3-chloro-4-(4-methylpiperazine-1-carbonyl)phenyl)imidazo[1,2-a]pyridin-3-yl)benzonitrile]	> 6.00	–

SMILES	pIC50 [1]	other results
CN1CCN(C(=O)c2ccc(-c3ccc4ncc(-c5ccc(C#N)cc5)n4c3)cc2F)CC1 [Example 142, 4-(6-(3-fluoro-4-(4-methylpiperazine-1-carbonyl)phenyl)imidazo[1,2-a]pyridin-3-yl)benzonitrile]	> 6.00	–
CN1CCN(C(=O)c2ccc(-c3ccc4ncc(-c5ccc(C#N)cc5)n4c3)cc2O)CC1 [Example 143]	–	pIC50 [2]: > 6.00
CN1CCN(C(=O)c2ccc(-c3ccc4ncc(-c5ccc(C#N)cc5)n4c3)c(O)c2)CC1 [Example 144]	–	pIC50 [2]: > 6.00
CN1CCN(C(=O)c2ccc(-c3ccc4ncc(-c5ccc(C#N)cc5)n4c3)cc2C(F)(F)F)CC1 [Example 145, 4-(6-(4-(4-methylpiperazine-1-carbonyl)-3-(trifluoromethyl)phenyl)imidazo[1,2-a]pyridin-3-yl)benzonitrile]	> 6.00	–
CN1CCN(C(=O)c2ccc(-c3ccc4ncc(-c5ccc(C#N)cc5)n4c3)cc2N)CC1 [Example 146, 4-(6-(3-amino-4-(4-methylpiperazine-1-carbonyl)phenyl)imidazo [1,2-a]pyridin-3-yl)benzonitrile]	> 6.00	–
CN1CCN(C(=O)c2ccc(-c3ccc4ncc(-c5ccc(C#N)cc5)n4c3)cc2N(C)C)CC1 [Example 147, 4-(6-(3-(dimethylamino)-4-(4-methylpiperazine-1-carbonyl)phenyl)imidazo[1,2-a]pyridin-3-yl)benzonitrile]	> 6.00	–
CC(=O)Nc1cc(-c2ccc3ncc(-c4ccc(C#N)cc4)n3c2)ccc1C(=O)N1CCN(C)CC1 [Example 149, N-(5-(3-(4-cyanophenyl)imidazo[1,2-a]pyridin-6-yl)-2-(4-methylpiperazine-1-carbonyl)phenyl)acetamide]	> 6.00	–
CNc1cc(-c2ccc3ncc(-c4ccc(C#N)cc4)n3c2)ccc1C(=O)N1CCN(C)CC1 [Example 150, 4-(6-(3-(methylamino)-4-(4-methylpiperazine-1-carbonyl)phenyl)imidazo [1,2-a]pyridin-3-yl)benzonitrile]	> 6.00	–
CNc1cc(-c2ccc3ncc(-c4ccc(C#N)cc4)n3c2)ccc1C(=O)N1CCOCC1 [Example 151, 4-(6-(3-(methylamino)-4-(morpholine-4-carbonyl)phenyl)imidazo[1,2-a]pyridin-3-yl)benzonitrile]	> 6.00	–
CN1CCN(C(=O)c2ccc(-c3ccc4ncc(-c5ccc(C#N)cc5)n4c3)c(Cl)c2)CC1 [Example 153]	> 6.00	–
Cc1cc(-c2ccc3ncc(-c4ccc(C#N)cc4)n3c2)ccc1C(=O)N1CCOCC1 [Example 156]	> 6.00	–
CN1CCN(C(=O)c2ccc(-c3ccc4ncc(-c5ccc(C#N)cc5)n4c3)cc2OC(F)(F)F)CC1 [Example 157]	> 6.00	–
COc1cc(-c2ccc3ncc(-c4ccc(C#N)cc4)n3c2)ccc1C(=O)N1CCOCC1 [Example 158]	> 6.00	–
N#Cc1ccc(-c2cnc3ccc(-c4ccc(C(=O)N5CCNCC5)c(O)c4)cn23)cc1 [Example 159, 4-(6-(3-hydroxy-4-(piperazine-1-carbonyl)phenyl)imidazo[1,2-a]pyridin-3-yl)benzonitrile]	> 6.00	–
N#Cc1ccc(-c2cnc3ccc(-c4ccc(C(=O)N5CCOCC5)c(N5CCOCC5)c4)cn23)cc1 [Example 160, 4-(6-[3-(morpholin-4-yl)-4-(morpholin-4-ylcarbonyl)phenyl]imidazo[1,2-a]pyridin-3-yl)benzonitrile]	> 6.00	–
N#Cc1ccc(-c2cnc3ccc(-c4ccc(C(=O)N5CCOCC5)c(F)c4)cn23)cc1 [Example 162, 4-(6-(3-fluoro-4-(morpholine-4-carbonyl)phenyl)imidazo [1,2-a]pyridin-3-yl)benzonitrile]	> 6.00	–
CC1(N2CCOCC2)CCN(C(=O)c2ccc(-c3ccc4ncc(-c5ccc(C#N)cc5)n4c3)cc2)CC1 [Example 163, 4-(6-(4-(4-methyl-4-morpholinopiperidine-1-carbonyl)phenyl)imidazo [1,2-a]pyridin-3-yl)benzonitrile]	> 6.00	–
